These results are taken from patent publication US20210008142A1, “PREPARATION AND USES OF SPINOSIN-Na FROM ZIZIPHI SPINOSAE SEMEN” (Shanxi University, priority 2019, published 2021).

The test system of data set [1] is Colon cancer cell line HCT116. The experiment in a line: MTT assay, tumor cell proliferation. It is filed as cell-based. The note with it: 48 h; for IC50: HCT-116, MTT. As to the method: (§1) Colon cancer cell line HCT116, cervical cancer cell line Hela, breast cancer cell MCF-7, liver cancer cell HepG2 and normal colonic epithelial cell line FHC in the logarithmic phase were harvested and respectively made into a suspension. After counted, the suspensions were adjusted to 6000 cells/100 μL, and then 100 μL, of respective suspensions were seeded into a 96-well plate, and cultured at 37° C. and 5% CO2 overnight. After that, the culture medium was discarded, and the wells were respectively added with culture mediums containing different concentrations of spinosin-Na, such that final concentrations of the spinosin-Na were respectively 50, 100, 150, 200 and 250 μg/mL. 5 parallel wells were set for each concentration treatment. The cells were continuously cultured in the incubator for 48 h. After that, the culture medium was discarded, and the cells were washed twice with PBS, added with 20 μL of 5.0 mg/mL MTT and continuously cultured for 4 h. The culture medium was discarded, and respective wells were added with 150 μL of DMSO to dissolve formazan crystals produced by living cells. The plate was shaken on a shaker for 10 min, and then transferred to a microplate reader for the measurement of absorbance at 570 nm.
(§2) The antitumor activity of different concentrations of spinosin (100, 200, 300, 400, 500 μg/mL) was measured by the same method described above.

Data set [2] concerns cervical cancer cell line Hela. Kind of data set: MTT assay, tumor cell proliferation. It is filed as cell-based. To be noted: 48 h; for IC50: MTT. As to the method: as §1, §2
The conditions of data set [3]: spinosin prepared by the existing methods; cited from earlier work.
The test system of the next data set is breast cancer cell MCF-7. Kind of data set: MTT assay, tumor cell proliferation. It is filed as cell-based. The note with it: 48 h. As to the method: as §1, §2
Another data set has as its system liver cancer cell HepG2. Kind of data set: MTT assay, tumor cell proliferation. It counts as cell-based. To be noted: 48 h. As to the method: as §1, §2
The test system of data set [4] is normal colonic epithelial cell line FHC. The experiment in a line: MTT assay, normal cell proliferation. To be noted: 50-250 μg/mL, 48 h. It counts as cell-based. The procedure: as §1, §2
The subject of data set [5] is cervical cancer cells Hela. The experiment in a line: Annexin V/PI flow cytometry apoptosis. It counts as cell-based. The note with it: 48 h. The procedure: (§3) HCT116 and Hela cells in the logarithmic phase were harvested, digested with 0.25% trypsin, and seeded into a 6-well cell culture plate at a density of 1×10^5 cells per petri dish. The cells were cultured at 37° C. and 5% CO2 in an incubator overnight. After the cell adhesion was observed, the culture medium was replaced, and the dishes were respectively added with different concentrations of spinosin-Na. At the same time, a blank control was set, and each concentration treatment was performed in triplicate. The cells were continuously cultured in the incubator under the same conditions for 48 h. After that, the adherent cells were digested with 0.25% trypsin followed by centrifugation at 1,000 rpm for 5 min. The supernatant was discarded, and the cells were washed twice with PBS. The cells were suspended with 200 μL of a mixture of Annexin V and Binding buffer and reacted at 4° C. in the dark for 30 min. 300 μL of a mixed solution of PI and Binding buffer was added to each sample 5 min before the test. The double-stained cells were detected by flow cytometry to identify normal cells, early apoptotic cells, late apoptotic cells and necrotic cells, determining the apoptosis rate. […]

For data set [6], the system named is colon cancer cells HCT116. The experiment in a line: Annexin V/PI flow cytometry apoptosis. It is filed as cell-based. The note with it: HCT116, 48 h. The procedure:
as §3

A further data set can be described thus: Water solubility. It counts as physicochemical.

Converted amounts (≈) assume the structure as drawn. Where two headings read alike, the source gives them in different places.

`COc1cc2oc(-c3ccc(O)cc3)cc(=O)c2c(O)c1[C@@H]1O[C@H](CO)[C@@H](O)[C@H](O)[C@H]1O[C@@H]1O[C@H](CO)[C@@H](O)[C@H](O)[C@H]1O` [Spinosin, spinosin]: the IC50 in data set [1] is 732.71 ± 18.97 µg/mL (≈ 1200 µM); in [2] it was 687.60 ± 2132 µg/mL (≈ 1130 µM). Also, the water solubility result in [3] is reported as “poor water-solubility”.

As to spinosin-Na, the “proliferation of tumor cells” value is reported as “significantly inhibit the proliferation” in [1] (HCT116, 50-250 μg/mL); “significantly inhibit the proliferation” with breast cancer cell MCF-7 (MCF-7, 50-250 μg/mL); “significantly inhibit the proliferation” in data set [2] (50-250 μg/mL); “significantly inhibit the proliferation” in the data set on liver cancer cell HepG2 (HepG2, 50-250 μg/mL). Besides, the IC50 in [1] amounted to 147.20 ± 4.65 µg/mL; with breast cancer cell MCF-7 (MCF7, MTT), 291.79 ± 10.49 µg/mL; in data set [2], 178.41 ± 6.83 µg/mL; with liver cancer cell HepG2 (HepG2, MTT) it was 444.08 ± 15.21 µg/mL. Also, the “effect on proliferation of normal cells” value in data set [4] was “no significant effect”. The “apoptosis of tumor cells” value in [5] and in [6] was “significantly induce the apoptosis” throughout. Further, the water solubility result in the data set “Water solubility” was “good water solubility”.
